Measured values: ChEMBL document CHEMBL1156829 (Proc Natl Acad Sci U S A, 2008)

Assays:
[1] = test system: Plasmodium falciparum; experiment: NOVARTIS: Inhibition of Plasmodium falciparum 3D7 (drug-susceptible) proliferation in erythrocyte-based infection assay; format: functional, organism-based; details: Plasmodium falciparum, 3D7
[2] = test system: Plasmodium falciparum; experiment: NOVARTIS: Inhibition of Plasmodium falciparum W2 (drug-resistant) proliferation in erythrocyte-based infection assay; format: functional, organism-based; details: Plasmodium falciparum, W2; read-out: EC50
[3] = NOVARTIS: Cytotoxicity against human hepatocellular carcinoma cell line (Huh7); format: toxicity, cell-based, Huh-7; details: Huh7 cells (hepatocellular carcinoma cell line)

Compound | EC50 [1] | EC50 [2] | CC50 [3]
Cc1cc(C)cc(Nc2cc(C)nc3nc(C)nn23)c1 | 0.594 µM | 0.536 µM | > 100 µM
CC1CCCCN1CCCNc1ncc(C(=O)NCc2ccccc2)c(NCCc2ccccc2)n1 (centres undefined) | 0.247 µM | > 0.878 µM | > 10 µM
CC(Oc1ccc(Cl)cc1Cl)c1nc(-c2ccc(NC(=O)c3cccs3)cc2)no1 (centres undefined) | 0.429 µM | 0.631 µM | 25.6 µM
O=C1Cc2c([nH]c3ccc(OCc4ccccc4)cc23)C2CC=CCC12 (centres undefined) | 1.59 µM | > 1.25 µM | > 10 µM
CCOC(=O)c1c(C)n(-c2ccccc2)c2ccc(OC(=O)C3CC3)cc12 | 0.749 µM | 1.72 µM | > 100 µM
CC(C)OCCCNc1sc(S(=O)(=O)c2ccccc2)nc1S(=O)(=O)c1ccc(Cl)cc1 | 0.0941 µM | 0.0581 µM | > 100 µM
CC(=O)Nc1ccc2c(c1)CCCC2 | 1.13 µM | 0.191 µM | > 10 µM
O=C(NC1CC1)c1ccc(N2CCC(Cc3ccccc3)CC2)c([N+](=O)[O-])c1 | 0.212 µM | 0.619 µM | 53.7 µM
Cc1ccc(C2CC3=Nc4ccccc4N(C(=O)C(F)(F)F)C(c4ccc(OCc5ccccc5)cc4)C3=C(O)C2)cc1 (centres undefined) | 1.66 µM | 1.55 µM | > 100 µM
Nc1cc2c(cc1Br)CCCC2 | > 1.03 µM | > 1.47 µM | > 10 µM
CCCCCCCCCC(=O)N1CCN(C(CC)c2nc3ccccc3c(=O)n2C)CC1 (centres undefined) | 0.283 µM | 0.267 µM | > 10 µM
Cc1ccn2c(NC(C)(C)CC(C)(C)C)c(-c3ccccc3OC(=O)c3ccccc3Br)nc2c1 | 0.76 µM | 0.117 µM | > 10 µM
CSCCN1CCc2ccc3[nH]cc(-c4cccc(Cl)c4)c3c2C1 | 0.108 µM | 0.224 µM | > 10 µM
CCCN(CCC)S(=O)(=O)c1cc(Br)cc2c1N(C(=O)CC)CC2 | 0.476 µM | 0.76 µM | > 100 µM
CCCc1c(C)nc2ccc(C)cc2c1O | 3.22 µM | 2.96 µM | > 100 µM
Cc1noc(C)c1S(=O)(=O)N(Cc1ccccc1)CC(O)CN1CCC(NC(=O)c2ccccc2Cl)C1 (centres undefined) | 0.256 µM | 0.0997 µM | > 10 µM
O=C(C=Cc1cccnc1)C12CC3CC(CC(C3)C1)C2 | 0.215 µM | 0.122 µM | > 100 µM
CC(C)CNc1nc(NCCCN(C)C)ncc1C(=O)NCc1ccccc1 | 0.316 µM | > 1.29 µM | > 10 µM
COc1ccc2ccccc2c1C1CC(=O)N2CN(Cc3ccco3)CSC2=C1C#N (centres undefined) | 3.32 µM | 2.18 µM | > 100 µM
CC(C)(C)CC(C)(C)Nc1c(-c2ccccc2OC(=O)c2ccccc2F)nc2ccccn12 | 1.3 µM | 0.0979 µM | > 10 µM
O=C(NCc1ccccc1)c1cccc2c(Br)cccc12 | > 1.1 µM | 1.47 µM | > 10 µM
O=C(CSc1nc2ccccc2[nH]1)Nc1ccc2c(c1)OCO2 | > 1.25 µM | > 1.04 µM | > 10 µM
CCOc1ccc(N(C(C)=O)C2=C(N3CCN(C)CC3)C(=O)c3ccccc3C2=O)cc1 | 0.0787 µM | 0.0109 µM | 12.9 µM
Cc1ccccc1NC(=O)N1CCN(C(=O)c2nc(-c3ccccc3)nc(C)c2C(=O)OC(C)C)CC1C (centres undefined) | 0.135 µM | 0.0995 µM | 51.9 µM
CC(=O)N(C1=C(N(C)C)C(=O)c2ccccc2C1=O)c1ccc(F)cc1 | 0.0244 µM | 0.032 µM | 2.68 µM
O=C(Oc1ccc(-c2ccc(OC(=O)c3ccco3)cc2)cc1)c1ccco1 | > 0.738 µM | 0.973 µM | > 10 µM
CCC(C)OC(=O)C1=C(C)NC2=C(C(=O)CC(c3ccc(OC)cc3)C2)C1c1ccc(O)cc1 (centres undefined) | 0.5 µM | 0.0312 µM | > 100 µM
Cc1c(C=O)c2ccccc2n1CC(=O)Nc1cccc(I)c1 | 0.365 µM | 0.405 µM | > 61.2 µM
